The structures appear in SMILES notation. In brackets after ≈: the same amount, converted by molar mass. Activity calls are given as the source filed them. The rule behind the calls is not given here.

We go through five compounds from ChEMBL document CHEMBL1158195, “Antitumor germacranolides from Anvillea garcinii” (1996).

One test has as its system HCT-116. Nature of the test: Cytotoxicity against human HCT116 cells. The test is classed as functional. To be noted: read-out: ED50 (the source's name).
A further test deals with BT-549. The experiment in a line: Cytotoxicity against human BT549 cells. In kind it is functional. To be noted: read-out: ED50 (the source's name).
In a further test the test system is IGROV-1. Nature of the test: Cytotoxicity against human IGROV1 cells. In kind it is functional. The note with it: read-out: ED50 (the source's name).
The next test deals with CCRF-CEM. Nature of the test: Cytotoxicity against human CCRF-CEM cells. In kind it is functional. The note with it: read-out: ED50 (the source's name).
A further test has as its system MOLT-4. The experiment in a line: Cytotoxicity against human MOLT4 cells. The test is classed as functional. The note with it: read-out: ED50 (the source's name).
A further test deals with UO-31. The experiment in a line: Cytotoxicity against human UO31 cells. The test is classed as functional. The note with it: read-out: ED50 (the source's name).
In a further test the test system is ACHN. Nature of the test: Cytotoxicity against human ACHN cells. To be noted: read-out: ED50 (the source's name). In kind it is functional.
The subject of a further test is SW-620. The experiment in a line: Cytotoxicity against human SW620 cells. The note with it: read-out: ED50 (the source's name). In kind it is functional.
The subject of a further test is HOP-62. Nature of the test: Cytotoxicity against human HOP62 cells. In kind it is functional. To be noted: read-out: ED50 (the source's name).
Another test deals with T47D. The experiment in a line: Cytotoxicity against human T47D cells. In kind it is functional. The note with it: read-out: ED50 (the source's name).
Another test relates to DU-145. Nature of the test: Cytotoxicity against human DU145 cells. The test is classed as functional. The note with it: read-out: ED50 (the source's name).
A further test relates to SF-268. The experiment in a line: Cytotoxicity against human SF268 cells. To be noted: read-out: ED50 (the source's name). In kind it is functional.
The next test has as its system PC-3. The experiment in a line: Cytotoxicity against human PC3 cells. To be noted: read-out: ED50 (the source's name). In kind it is functional.
The subject of the next test is SNB-75. The experiment in a line: Cytotoxicity against human SNB75 cells. The test is classed as functional. The note with it: read-out: ED50 (the source's name).
Another test concerns NCI-H522. Nature of the test: Cytotoxicity against human NCI-H522 cells. The test is classed as functional. The note with it: read-out: ED50 (the source's name).
A further test deals with Malme-3M. The experiment in a line: Cytotoxicity against human MALME-3M cells. In kind it is functional. The note with it: read-out: ED50 (the source's name).
Test [1] concerns Human immunodeficiency virus. The experiment in a line: Antiviral activity against HIV in human H9 cells assessed as virus-induced cytopathic effect. In kind it is functional, organism-based.
The next test deals with OVCAR-8. Nature of the test: Cytotoxicity against human OVCAR8 cells. The test is classed as functional. The note with it: read-out: ED50 (the source's name).
Another test concerns LOX IMVI. The experiment in a line: Cytotoxicity against human LOXIMVI cells. To be noted: read-out: ED50 (the source's name). The test is classed as functional.
A further test deals with MDA-MB-231. Nature of the test: Cytotoxicity against human MDA-MB-231 cells. In kind it is functional. The note with it: read-out: ED50 (the source's name).

Take `C=C1C(=O)O[C@H]2[C@H]1C[C@H](O)[C@@]1(C)O[C@@H]1CC[C@@]1(C)O[C@@H]21`: the EC50 was 4.65 µg/mL (≈ 16.6 µM) in the test with HCT-116; 3.86 µg/mL (≈ 13.8 µM) in the test on BT-549; 4.17 µg/mL (≈ 14.9 µM) in the test on IGROV-1; 2.43 µg/mL (≈ 8.67 µM) with CCRF-CEM; 2.83 µg/mL (≈ 10.1 µM) in the test on MOLT-4; 4.79 µg/mL (≈ 17.1 µM) in the test on UO-31. For the same compound, the EC50 was found to be 5.07 µg/mL (≈ 18.1 µM) in the test with ACHN; 3.81 µg/mL (≈ 13.6 µM) in the test on SW-620; 5.74 µg/mL (≈ 20.5 µM) in the test with HOP-62; 5.4 µg/mL (≈ 19.3 µM) in the test with T47D; 9.66 µg/mL (≈ 34.5 µM) in the test with DU-145; 12.1 µg/mL (≈ 43.2 µM) in the test on SF-268. Besides, the EC50 in the test with PC-3 came to 4.98 µg/mL (≈ 17.8 µM); with SNB-75, 22.5 µg/mL (≈ 80.3 µM); in the test with NCI-H522, 0.78 µg/mL (≈ 2.78 µM); in the test on Malme-3M, 3.36 µg/mL (≈ 12 µM); in the test with OVCAR-8, 5.32 µg/mL (≈ 19 µM). Moreover, the outcome in test [1] was inactive.
For the compound `C=C1C(=O)O[C@H]2[C@H]1C[C@@H](O)[C@@]1(C)O[C@@H]1CC[C@@]1(C)O[C@@H]21`, the EC50 in the test with HCT-116 is 4.96 µg/mL (≈ 17.7 µM); in the test on CCRF-CEM, 1.44 µg/mL (≈ 5.14 µM); in the test on MOLT-4, 1.67 µg/mL (≈ 5.96 µM); with UO-31, 4.76 µg/mL (≈ 17 µM); with LOX IMVI, 3.7 µg/mL (≈ 13.2 µM); in the test with ACHN, 3.84 µg/mL (≈ 13.7 µM). Moreover, the EC50 in the test with SW-620 is 3.72 µg/mL (≈ 13.3 µM); in the test on HOP-62, 4.82 µg/mL (≈ 17.2 µM); in the test on MDA-MB-231, 5.35 µg/mL (≈ 19.1 µM); in the test with DU-145 it was 10.2 µg/mL (≈ 36.5 µM); in the test with SF-268, 13.5 µg/mL (≈ 48.1 µM); with PC-3, 7.59 µg/mL (≈ 27.1 µM). Besides, the EC50 in the test with SNB-75 is 20.8 µg/mL (≈ 74 µM); in the test with NCI-H522 it was 1.53 µg/mL (≈ 5.46 µM); with Malme-3M, 3.28 µg/mL (≈ 11.7 µM); in the test on OVCAR-8 it was 9.72 µg/mL (≈ 34.7 µM). In test [1], the outcome was inactive.
Regarding `C=C1C(=O)O[C@H]2[C@H]1C[C@H](O)/C(C)=C/CC[C@@]1(C)O[C@@H]21`, the EC50 is 3.83 µg/mL (≈ 14.5 µM) in the test with HCT-116; 3.91 µg/mL (≈ 14.8 µM) in the test with IGROV-1; 0.8 µg/mL (≈ 3.03 µM) in the test on CCRF-CEM; 0.68 µg/mL (≈ 2.57 µM) in the test with MOLT-4; 3.88 µg/mL (≈ 14.7 µM) with UO-31; 2.46 µg/mL (≈ 9.31 µM) in the test with LOX IMVI. Besides, the EC50 worked out at 2.21 µg/mL (≈ 8.36 µM) in the test on ACHN; 0.55 µg/mL (≈ 2.08 µM) with SW-620; 4.57 µg/mL (≈ 17.3 µM) with HOP-62; 4.99 µg/mL (≈ 18.9 µM) with MDA-MB-231; 5.6 µg/mL (≈ 21.2 µM) in the test with DU-145; 7.76 µg/mL (≈ 29.4 µM) in the test on SF-268. For the same compound, the EC50 with SNB-75 was determined as 8.53 µg/mL (≈ 32.3 µM); in the test with NCI-H522, 0.45 µg/mL (≈ 1.7 µM); with Malme-3M, 1.62 µg/mL (≈ 6.13 µM); in the test with OVCAR-8, 4.75 µg/mL (≈ 18 µM). The result in test [1] was inactive.
As to `C=C1C(=O)O[C@H]2[C@H]1CC(=O)/C(C)=C/CC[C@@]1(C)O[C@@H]21`, the EC50 in the test on HCT-116 is 0.45 µg/mL (≈ 1.72 µM); in the test with BT-549 it was 0.34 µg/mL (≈ 1.3 µM); in the test on IGROV-1, 0.94 µg/mL (≈ 3.58 µM); in the test with CCRF-CEM, 0.05 µg/mL (≈ 0.191 µM); in the test with MOLT-4, 0.07 µg/mL (≈ 0.267 µM); in the test with UO-31 it was 0.28 µg/mL (≈ 1.07 µM). In addition, the EC50 in the test with LOX IMVI is 0.11 µg/mL (≈ 0.419 µM); in the test with ACHN, 0.3 µg/mL (≈ 1.14 µM); with SW-620, 0.21 µg/mL (≈ 0.801 µM); with HOP-62, 0.63 µg/mL (≈ 2.4 µM); with MDA-MB-231, 0.17 µg/mL (≈ 0.648 µM); with T47D, 0.45 µg/mL (≈ 1.72 µM). Also, the EC50 with DU-145 was 3.3 µg/mL (≈ 12.6 µM); in the test on SF-268 it was 1.73 µg/mL (≈ 6.6 µM); in the test on PC-3 it was 0.9 µg/mL (≈ 3.43 µM); with SNB-75, 4.38 µg/mL (≈ 16.7 µM); in the test with NCI-H522, 0.15 µg/mL (≈ 0.572 µM); with Malme-3M, 0.33 µg/mL (≈ 1.26 µM). The EC50 with OVCAR-8 was 0.78 µg/mL (≈ 2.97 µM). The result in test [1] was inactive.
With `C=C1C(=O)O[C@H]2[C@H]1C[C@@H](O)/C(C)=C/CC[C@@]1(C)O[C@@H]21`, the EC50 is 1.66 µg/mL (≈ 6.28 µM) in the test with HCT-116; 2.77 µg/mL (≈ 10.5 µM) in the test on BT-549; 8.63 µg/mL (≈ 32.6 µM) with IGROV-1; 0.84 µg/mL (≈ 3.18 µM) with CCRF-CEM; 0.94 µg/mL (≈ 3.56 µM) with MOLT-4; 7.63 µg/mL (≈ 28.9 µM) with UO-31. Besides, the EC50 in the test with LOX IMVI amounted to 1.66 µg/mL (≈ 6.28 µM); in the test with ACHN, 1.91 µg/mL (≈ 7.23 µM); in the test on SW-620, 1.08 µg/mL (≈ 4.09 µM); in the test with HOP-62, 1.32 µg/mL (≈ 4.99 µM); in the test on MDA-MB-231, 4.49 µg/mL (≈ 17 µM); with T47D it was 1.54 µg/mL (≈ 5.83 µM). In addition, the EC50 in the test on DU-145 turned out to be 6.73 µg/mL (≈ 25.5 µM); in the test with SF-268 it was 10.3 µg/mL (≈ 39 µM); with PC-3, 11.6 µg/mL (≈ 44 µM); with NCI-H522 it was 0.5 µg/mL (≈ 1.89 µM); in the test with Malme-3M, 1.07 µg/mL (≈ 4.05 µM); in the test on OVCAR-8 it was 4.07 µg/mL (≈ 15.4 µM). The result in test [1] was inactive.
